Results as given in patent publication US20190175560A1, “MEBENDAZOLE CANCER THERAPIES AND METHODS OF USE” (Shepherd Therapeutics, Inc., priority 2017, published 2019).

How the values were obtained:
Type in all cases: cell-based
[1] = test system: COV362 ovarian carcinoma cells; assay: Synergy of MBZ with chemotherapeutic agents (Chou-Talalay CI, Cell Titer Glo); settings: in combination with MBZ, 72 hour incubation
Experimental: (§1) For in vitro experiments, cells were plated in triplicate and treated with a range of concentrations of MBZ and relevant chemotherapeutic agents in a complete Latin square.
(§2) Cells were plated in triplicate and treated with a range of 5 concentrations of MBZ in combination with 5 concentrations of chemotherapeutic agents in a complete Latin square. Following a 72 hour incubation, cell viability was determined using Cell Titer Glo.

[2] = test system: SK-LMS-1 leiomyosarcoma cells; assay: as above; settings: in combination with MBZ, 72 hour incubation
Experimental: (§3) Cells were plated in triplicate and treated with a range of 5 concentrations of MBZ in combination with 5 concentrations of chemotherapeutic agents in a complete Latin square. Following a 72 hour incubation, cell viability was determined using Cell Titer Glo. The Combination index (CI) was determined based on the method described by Chou and Talalay (2010) with a CI value less than 0.9 indicating synergy.

[3] = test system: TOV-112D ovarian carcinoma cells; assay: as above; settings: in combination with MBZ, 72 hour incubation
Experimental: as §1, §3

[4] = test system: SNU16 gastric carcinoma cells; assay: Synergy of MBZ or HA-PLGA-MBZ with chemotherapeutic agents (Chou-Talalay CI, Cell Titer Glo); settings: in combination with MBZ; SNU16; 72 hour incubation
Experimental: as §1, §2
(§4) In table 22 below, cells were plated in triplicate and treated with a range of 5 concentrations of MBZ or HA-PLGA-MBZ nanoparticles containing a molar equivalent of MBZ, and 5 concentrations of relevant chemotherapeutic agents in a complete Latin square. Combination indexes (CI) were determined based on the method described by Chou-Talalay with a CI value less than 0.9 indicating synergy. […] Numbers in parentheses represent the range of synergistic CI values for each cell line and drug combination.

[5] = test system: SK-N-AS neuroblastoma cells; assay: Synergy of MBZ with chemotherapeutic agents (Chou-Talalay CI, Cell Titer Glo); settings: in combination with MBZ, 72 hour incubation
Experimental: as §3

LO68 mesothelioma cells = assay: as above; settings: in combination with MBZ, 72 hour incubation
Experimental: as §1, §3

[6] = test system: MSTO-211H mesothelioma cells; assay: as above; settings: in combination with MBZ, 72 hour incubation
Experimental: as §1, §3

[7] = test system: Kato-III gastric carcinoma cells; assay: as above; settings: in combination with MBZ, 72 hour incubation
Experimental: as §1, §2

JU77 mesothelioma cells = assay: as above; settings: in combination with MBZ, 72 hour incubation
Experimental: as §1, §3

[8] = test system: CHP-212 neuroblastoma cells; assay: Synergy of MBZ or HA-PLGA-MBZ with chemotherapeutic agents (Chou-Talalay CI, Cell Titer Glo); settings: in combination with MBZ; CHP-212; 72 hour incubation
Experimental: as §1, §2, §4

[9] = test system: OE-33 esophageal carcinoma cells; assay: Synergy of MBZ with chemotherapeutic agents (Chou-Talalay CI, Cell Titer Glo); settings: in combination with MBZ, 72 hour incubation
Experimental: as §1, §2

[10] = test system: Flo-1 esophageal carcinoma cells; assay: as above; settings: in combination with MBZ, 72 hour incubation
Experimental: as §1, §2

[11] = test system: GIST-1 gastrointestinal stromal tumor cell line; assay: Synergy of MBZ with small molecule agents (Chou-Talalay CI, Cell Titer Glo); settings: in combination with MBZ, 72 hour incubation
Experimental: (§5) For in vitro experiments, cells were plated in triplicate and treated with a range of concentrations of MBZ and relevant chemotherapeutic agents in a complete Latin square. Combination indexes (CI) were determined based on the method described by Chou and Talalay (Cancer Res. 2010 Jan. 15; 70(2):440-6. doi: 10.1158/0008-5472.CAN-09-1947. Epub 2010 Jan. 12).
as §3

[12] = test system: SW13 adrenocortical carcinoma cells; assay: Synergy of MBZ with chemotherapeutic agents (Chou-Talalay CI, Cell Titer Glo); settings: in combination with MBZ, 72 hour incubation
Experimental: as §3

[13] = test system: Colo-205 colorectal carcinoma cells; assay: as above; settings: in combination with MBZ, 72 hour incubation
Experimental: as §1, §2

[14] = test system: DMS-114 small cell lung carcinoma cells; assay: as above; settings: in combination with MBZ, 72 hour incubation
Experimental: as §5, §3

[15] = test system: SW-1271 small cell lung carcinoma cells; assay: as above; settings: in combination with MBZ, 72 hour incubation
Experimental: as §1, §3

[16] = test system: STC-1 carcinoid tumor cell line; assay: as above; settings: in combination with MBZ, 72 hour incubation
Experimental: as §1, §3

[17] = test system: HCT116 colorectal carcinoma cells; assay: as above; settings: in combination with MBZ, 72 hour incubation
Experimental: as §1, §2

[18] = test system: Hs766t pancreatic carcinoma cells; assay: as above; settings: in combination with MBZ, 72 hour incubation
Experimental: as §3

[19] = test system: BxPC-3 pancreatic carcinoma cells; assay: as above; settings: in combination with MBZ, 72 hour incubation
Experimental: as §1, §2

[20] = test system: PC12 pheochromocytoma/paraganglioma cell line; assay: Synergy of MBZ or HA-PLGA-MBZ with chemotherapeutic agents (Chou-Talalay CI, Cell Titer Glo); settings: in combination with MBZ; PC12; 72 hour incubation
Experimental: as §1, §2, §4

[21] = test system: CCC-5 cholangiocarcinoma cells; assay: Synergy of MBZ with chemotherapeutic agents (Chou-Talalay CI, Cell Titer Glo); settings: in combination with MBZ, 72 hour incubation
Experimental: as §1, §2

[22] = test system: H295R adrenocortical carcinoma cells; assay: as above; settings: in combination with MBZ, 72 hour incubation
Experimental: as §5, §3

[23] = test system: TFK-1 cholangiocarcinoma cells; assay: as above; settings: in combination with MBZ, 72 hour incubation
Experimental: as §5, §3

[24] = test system: SK-UT-1B leiomyosarcoma cells; assay: as above; settings: in combination with MBZ, 72 hour incubation
Experimental: as §5, §3

[25] = test system: SK-UT-1 leiomyosarcoma cells; assay: as above; settings: in combination with MBZ, 72 hour incubation
Experimental: as §3

[26] = test system: HepG2 hepatocellular carcinoma cells; assay: as above; settings: in combination with MBZ, 72 hour incubation
Experimental: as §1, §2

[27] = test system: HepG2-C3A hepatocellular carcinoma cells; assay: as above; settings: in combination with MBZ, 72 hour incubation
Experimental: as §1, §3

Compound: CC(=O)O[C@@]12CO[C@@H]1C[C@H](O)[C@@]1(C)C(=O)[C@H](O)C3=C(C)[C@@H](OC(=O)[C@H](O)[C@@H](NC(=O)OC(C)(C)C)c4ccccc4)C[C@@](O)([C@@H](OC(=O)c4ccccc4)[C@H]21)C3(C)C [Docetaxel]
- CI range for the concentration pairings [1]: 0.399-0.867
- synergy with MBZ (Yes/No) [2]: No
- synergy with MBZ (Yes/No) [3]: No

Compound: N.N.O=C([O-])C1(C(=O)[O-])CCC1.[Pt+2] [Carboplatin]
- CI range for the concentration pairings [4]: 0.409-0.783
- CI range for the concentration pairings [1]: 0.553-0.860
- CI range for the concentration pairings [5]: 0.433-0.891
- CI range for the concentration pairings (LO68 mesothelioma cells): 0.574-0.865
- synergy with MBZ (Yes/No) [6]: No
- synergy with MBZ (Yes/No) [7]: No
- CI range for the concentration pairings (JU77 mesothelioma cells): 0.539-0.841
- CI range for the concentration pairings [8]: 0.587-0.876
- CI range for the concentration pairings [9]: 0.542-0.636
- CI range for the concentration pairings [10]: 0.063-0.603
- CI range for the concentration pairings [3]: 0.506-0.845

Compound: CCN1CCN(Cc2ccc(Nc3ncc(F)c(-c4cc(F)c5nc(C)n(C(C)C)c5c4)n3)nc2)CC1 [Abemaciclib]
- CI range for the concentration pairings [11]: 0.390-0.701

Compound: COc1cc([C@@H]2c3cc4c(cc3[C@@H](O[C@@H]3O[C@@H]5CO[C@@H](C)O[C@H]5[C@H](O)[C@H]3O)[C@H]3COC(=O)[C@H]23)OCO4)cc(OC)c1O [Etoposide]
- CI range for the concentration pairings [12]: 0.618-0.710
- CI range for the concentration pairings [13]: 0.293-0.707
- CI range for the concentration pairings [8]: 0.647-0.891
- CI range for the concentration pairings [14]: 0.551-0.832
- CI range for the concentration pairings [15]: 0.535-0.899
- CI range for the concentration pairings [16]: 0.253-0.893
- CI range for the concentration pairings [17]: 0.607-0.890

Compound: Cc1ccc(NC(=O)c2ccc(CN3CCN(C)CC3)cc2)cc1Nc1nccc(-c2cccnc2)n1 [Imatinib]
- CI range for the concentration pairings [11]: 0.627-0.875

Compound: CCc1c2c(nc3ccc(OC(=O)N4CCC(N5CCCCC5)CC4)cc13)-c1cc3c(c(=O)n1C2)COC(=O)[C@]3(O)CC [Irinotecan]
- CI range for the concentration pairings [4]: 0.635-0.871
- CI range for the concentration pairings [13]: 0.502-0.819
- synergy with MBZ (Yes/No) [7]: No
- CI range for the concentration pairings [9]: 0.589-0.757
- synergy with MBZ (Yes/No) [18]: No
- CI range for the concentration pairings [19]: 0.659-0.793
- CI range for the concentration pairings [10]: 0.439-0.871
- CI range for the concentration pairings [17]: 0.545-0.793

Compound: CC(=O)O[C@H]1C(=O)[C@@]2(C)[C@H]([C@H](OC(=O)c3ccccc3)[C@]3(O)C[C@H](OC(=O)[C@H](O)[C@@H](NC(=O)c4ccccc4)c4ccccc4)C(C)=C1C3(C)C)[C@]1(OC(C)=O)CO[C@@H]1C[C@@H]2O [Paclitaxel]
- CI range for the concentration pairings [4]: 0.425-0.883
- CI range for the concentration pairings [1]: 0.318-0.889
- CI range for the concentration pairings [7]: 0.193-0.508
- CI range for the concentration pairings [19]: 0.341-0.845
- CI range for the concentration pairings [10]: 0.430-0.864
- CI range for the concentration pairings [3]: 0.367-0.839

Compound: O=P1(N(CCCl)CCCl)NCCCO1 (stereo not drawn) [Cyclophosphamide]
- CI range for the concentration pairings [20]: 0.388-0.879
- CI range for the concentration pairings [8]: 0.569-0.860
- CI range for the concentration pairings [16]: 0.226-0.784

Compound: CC[C@]1(O)C[C@H]2CN(CCc3c([nH]c4ccccc34)[C@@](C(=O)OC)(c3cc4c(cc3OC)N(C=O)[C@H]3[C@@](O)(C(=O)OC)[C@H](OC(C)=O)[C@]5(CC)C=CCN6CC[C@]43[C@@H]65)C2)C1 [Vincristine]
- CI range for the concentration pairings [20]: 0.274-0.871

Compound: N.N.[Cl][Pt][Cl] [Cisplatin]
- CI range for the concentration pairings [12]: 0.410-0.883
- CI range for the concentration pairings [1]: 0.578-0.878
- CI range for the concentration pairings [5]: 0.141-0.746
- CI range for the concentration pairings [21]: 0.121-0.716
- CI range for the concentration pairings [22]: 0.544-0.771
- CI range for the concentration pairings [23]: 0.405-0.877
- CI range for the concentration pairings [8]: 0.653-0.896
- CI range for the concentration pairings [14]: 0.223-0.837
- CI range for the concentration pairings [18]: 0.658-0.847
- CI range for the concentration pairings [15]: 0.275-0.763
- CI range for the concentration pairings [19]: 0.469-0.762
- CI range for the concentration pairings [16]: 0.441-0.785
- CI range for the concentration pairings [3]: 0.497-0.860

Compound: COc1cccc2c1C(=O)c1c(O)c3c(c(O)c1C2=O)C[C@@](O)(C(=O)CO)C[C@@H]3O[C@H]1C[C@H](N)[C@H](O)[C@H](C)O1 [Doxorubicin]
- CI range for the concentration pairings [12]: 0.771-0.850
- CI range for the concentration pairings [5]: 0.267-0.849
- CI range for the concentration pairings (LO68 mesothelioma cells): 0.433-0.875
- CI range for the concentration pairings [6]: 0.288-0.700
- synergy with MBZ (Yes/No) [22]: No
- CI range for the concentration pairings (JU77 mesothelioma cells): 0.458-0.820
- CI range for the concentration pairings [8]: 0.646-0.883
- CI range for the concentration pairings [24]: 0.716-0.887
- CI range for the concentration pairings [2]: 0.514-0.872
- CI range for the concentration pairings [16]: 0.419-0.829
- synergy with MBZ (Yes/No) [25]: No

Compound: CCC1=C[C@@H]2CN(C1)Cc1c([nH]c3ccccc13)[C@@](C(=O)OC)(c1cc3c(cc1OC)N(C)[C@H]1[C@@](O)(C(=O)OC)[C@H](OC(C)=O)[C@]4(CC)C=CCN5CC[C@]31[C@@H]54)C2 [Vinorelbine]
- CI range for the concentration pairings (LO68 mesothelioma cells): 0.445-0.872
- CI range for the concentration pairings [6]: 0.087-0.885
- CI range for the concentration pairings (JU77 mesothelioma cells): 0.325-0.799

Compound: CN(C)/N=N/c1[nH]cnc1C(N)=O [Dacarbazine]
- CI range for the concentration pairings [20]: 0.246-0.785

Compound: O=P1(NCCCl)OCCCN1CCCl (stereo not drawn) [Ifosamide]
- CI range for the concentration pairings [25]: 0.317-0.708

Compound: O=c1[nH]cc(F)c(=O)[nH]1 [5-FU, 5-Fluorouracil]
- CI range for the concentration pairings [4]: 0.429-0.827
- CI range for the concentration pairings [21]: 0.252-0.878
- CI range for the concentration pairings [13]: 0.528-0.748
- CI range for the concentration pairings [7]: 0.073-0.558
- CI range for the concentration pairings [18]: 0.170-0.877
- CI range for the concentration pairings [19]: 0.448-0.792
- CI range for the concentration pairings [10]: 0.370-0.855
- CI range for the concentration pairings [16]: 0.458-0.850
- CI range for the concentration pairings [17]: 0.285-0.860

Compound: Nc1ccn([C@@H]2O[C@H](CO)[C@@H](O)C2(F)F)c(=O)n1 [Gemcitabine]
- CI range for the concentration pairings [21]: 0.394-0.855
- CI range for the concentration pairings (LO68 mesothelioma cells): 0.525-0.845
- CI range for the concentration pairings [6]: 0.086-0.796
- synergy with MBZ (Yes/No) [23]: No
- CI range for the concentration pairings (JU77 mesothelioma cells): 0.362-0.712
- CI range for the concentration pairings [18]: 0.149-0.874
- CI range for the concentration pairings [19]: 0.502-0.770
- CI range for the concentration pairings [26]: 0.012-0.796
- CI range for the concentration pairings [24]: 0.410-0.893
- CI range for the concentration pairings [2]: 0.418-0.861
- CI range for the concentration pairings [25]: 0.385-0.802
- synergy with MBZ (Yes/No) [27]: No

Compound: O=C1[O][Pt]2([NH][C@@H]3CCCC[C@H]3[NH]2)[O]C1=O [Oxaliplatin]
- CI range for the concentration pairings [4]: 0.571-0.883
- CI range for the concentration pairings [21]: 0.060-0.631
- CI range for the concentration pairings [7]: 0.587-0.897
- CI range for the concentration pairings [9]: 0.395-0.597
- CI range for the concentration pairings [19]: 0.455-0.758
- CI range for the concentration pairings [26]: 0.036-0.834
- CI range for the concentration pairings [10]: 0.355-0.875
- CI range for the concentration pairings [17]: 0.493-0.728
